Experimental data from US20070021434A1, “NON-NUCLEOSIDE ANTI-HEPACIVIRUS AGENTS AND USES THEREOF” (Migenix Inc., priority 2005, published 2007).

Molecular target: HCV RdRp (NS5B) (UniProt P26663)
Assay type: biochemical, hepatitis C virus

HCV RdRp (NS5B), sequence (P26663 whole entry, looked up): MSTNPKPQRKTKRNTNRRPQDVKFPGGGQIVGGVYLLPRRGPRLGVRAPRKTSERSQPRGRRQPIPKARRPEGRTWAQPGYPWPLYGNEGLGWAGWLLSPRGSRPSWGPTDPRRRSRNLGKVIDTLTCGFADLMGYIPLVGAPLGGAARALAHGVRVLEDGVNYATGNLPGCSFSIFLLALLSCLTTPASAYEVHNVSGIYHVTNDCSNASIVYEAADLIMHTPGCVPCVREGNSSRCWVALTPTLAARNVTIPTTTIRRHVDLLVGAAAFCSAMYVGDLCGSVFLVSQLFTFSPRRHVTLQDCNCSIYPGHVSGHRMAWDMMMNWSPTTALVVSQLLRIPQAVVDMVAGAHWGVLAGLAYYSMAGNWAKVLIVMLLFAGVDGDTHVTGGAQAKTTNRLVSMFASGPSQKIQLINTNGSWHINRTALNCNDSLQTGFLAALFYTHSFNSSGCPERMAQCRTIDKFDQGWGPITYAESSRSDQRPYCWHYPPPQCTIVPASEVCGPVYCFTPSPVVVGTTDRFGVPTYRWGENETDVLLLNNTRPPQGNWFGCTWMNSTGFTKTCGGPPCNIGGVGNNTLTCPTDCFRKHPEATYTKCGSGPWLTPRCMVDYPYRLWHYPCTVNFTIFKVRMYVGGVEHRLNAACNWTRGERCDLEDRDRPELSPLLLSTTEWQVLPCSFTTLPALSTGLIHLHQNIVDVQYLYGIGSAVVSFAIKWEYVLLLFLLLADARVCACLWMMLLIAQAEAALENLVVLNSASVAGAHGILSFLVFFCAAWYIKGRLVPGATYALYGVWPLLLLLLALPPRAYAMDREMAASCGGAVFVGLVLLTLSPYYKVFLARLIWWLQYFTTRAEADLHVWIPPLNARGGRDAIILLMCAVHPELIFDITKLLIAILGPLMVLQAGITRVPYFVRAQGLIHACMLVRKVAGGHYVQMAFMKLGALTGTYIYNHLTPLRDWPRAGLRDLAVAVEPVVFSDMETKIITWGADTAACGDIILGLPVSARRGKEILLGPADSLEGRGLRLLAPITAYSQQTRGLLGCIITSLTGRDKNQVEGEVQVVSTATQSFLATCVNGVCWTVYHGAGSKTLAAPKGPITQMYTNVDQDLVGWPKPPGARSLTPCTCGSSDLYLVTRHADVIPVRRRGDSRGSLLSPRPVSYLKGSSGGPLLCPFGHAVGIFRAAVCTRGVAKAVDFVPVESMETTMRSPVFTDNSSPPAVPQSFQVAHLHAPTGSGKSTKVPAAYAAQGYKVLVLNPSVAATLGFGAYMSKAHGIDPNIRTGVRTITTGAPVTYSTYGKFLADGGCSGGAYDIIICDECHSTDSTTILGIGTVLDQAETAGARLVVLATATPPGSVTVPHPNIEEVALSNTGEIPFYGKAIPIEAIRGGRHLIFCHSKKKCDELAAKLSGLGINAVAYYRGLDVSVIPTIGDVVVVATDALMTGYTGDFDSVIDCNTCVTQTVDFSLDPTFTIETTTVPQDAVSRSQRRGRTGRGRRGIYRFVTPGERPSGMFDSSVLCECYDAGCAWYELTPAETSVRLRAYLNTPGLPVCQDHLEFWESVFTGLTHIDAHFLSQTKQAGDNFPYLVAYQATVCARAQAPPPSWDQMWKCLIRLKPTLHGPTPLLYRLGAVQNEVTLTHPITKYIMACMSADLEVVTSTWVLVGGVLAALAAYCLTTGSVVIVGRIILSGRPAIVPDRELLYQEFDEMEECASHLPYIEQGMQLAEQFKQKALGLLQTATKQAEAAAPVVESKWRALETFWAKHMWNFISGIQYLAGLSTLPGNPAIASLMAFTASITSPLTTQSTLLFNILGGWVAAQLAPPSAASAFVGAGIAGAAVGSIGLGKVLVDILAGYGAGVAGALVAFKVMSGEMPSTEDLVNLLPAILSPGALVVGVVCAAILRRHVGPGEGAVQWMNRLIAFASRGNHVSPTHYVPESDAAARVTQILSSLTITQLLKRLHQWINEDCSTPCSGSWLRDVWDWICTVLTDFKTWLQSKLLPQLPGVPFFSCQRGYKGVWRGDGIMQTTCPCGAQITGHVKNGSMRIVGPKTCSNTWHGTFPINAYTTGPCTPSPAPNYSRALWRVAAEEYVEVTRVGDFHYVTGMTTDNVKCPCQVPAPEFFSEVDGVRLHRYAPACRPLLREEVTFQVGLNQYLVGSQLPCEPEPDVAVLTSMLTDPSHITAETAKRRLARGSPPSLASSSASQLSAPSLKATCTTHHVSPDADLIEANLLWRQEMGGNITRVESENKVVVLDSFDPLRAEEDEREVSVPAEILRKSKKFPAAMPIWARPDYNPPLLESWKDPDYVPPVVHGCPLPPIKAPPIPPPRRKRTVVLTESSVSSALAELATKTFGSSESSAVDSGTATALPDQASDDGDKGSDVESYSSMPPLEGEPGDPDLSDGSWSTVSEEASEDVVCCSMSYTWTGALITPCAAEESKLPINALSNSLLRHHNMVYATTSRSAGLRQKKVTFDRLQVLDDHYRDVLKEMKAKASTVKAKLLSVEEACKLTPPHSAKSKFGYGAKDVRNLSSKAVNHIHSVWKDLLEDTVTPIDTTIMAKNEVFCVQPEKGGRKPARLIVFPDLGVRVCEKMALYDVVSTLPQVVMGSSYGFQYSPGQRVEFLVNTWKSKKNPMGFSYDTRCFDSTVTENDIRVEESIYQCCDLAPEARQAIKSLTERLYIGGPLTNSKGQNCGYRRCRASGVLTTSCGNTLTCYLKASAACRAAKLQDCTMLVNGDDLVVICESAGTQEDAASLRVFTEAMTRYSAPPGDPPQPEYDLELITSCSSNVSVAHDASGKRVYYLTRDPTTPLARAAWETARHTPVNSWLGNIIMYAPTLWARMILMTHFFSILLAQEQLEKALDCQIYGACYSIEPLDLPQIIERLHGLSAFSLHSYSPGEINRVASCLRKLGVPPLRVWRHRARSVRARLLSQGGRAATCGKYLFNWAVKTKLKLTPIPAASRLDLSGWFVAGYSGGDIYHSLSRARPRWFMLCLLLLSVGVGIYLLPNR

| Structure (SMILES) | IC50 [µM] |
| --- | --- |
| COC(=O)C(Cc1c[nH]c2ccccc12)NC(=O)[C@H](CCCCN)NC(=O)OCC1c2ccccc2-c2ccccc21 (mixture of isomers) [Compound 55, (+/−)-2-[6-AMINO-2-(S)-((9H-FLUOREN-9-YLMETHOXYCARBONYL)AMINO)-HEXANOYL-AMINO]-3-(1H-INDOL-3-YL)-PROPIONIC ACID METHYL ESTER] | > 50 |
| Cc1ccc(NC(=O)[C@H](CCCNC(=O)CN)NC(=O)Nc2ccc(OCc3ccccc3)cc2)cc1 [Compound 322, (S)-5-(2-AMINO-ACETYLAMINO)-2-[3-(4-BENZYLOXY-PHENYL)-UREIDO]-PENTANOIC ACID P-TOLYLAMIDE] | 10 to 50 |
| Cc1ccc(NC(=O)C2CCCCN2C(=O)OCC2c3ccccc3-c3ccccc32)cc1 [Compound 122, (S)-2-P-TOLYLCARBAMOYL-PIPERIDINE-1-CARBOXYLIC ACID 9H-FLUOREN-9-YLMETHYL ESTER] | > 50 |
| Cc1cc(NC(=O)[C@H](CCCCN)NC(=O)Nc2ccc(OCc3ccccc3)cc2)n(-c2ccccc2)n1 [Compound 316, (S)-6-AMINO-2-[3-(4-BENZYLOXY-PHENYL)-UREIDO]-HEXANOIC ACID (5-METHYL-2-PHENYL-2H-PYRAZOL-3-YL)-AMIDE] | 10 to 50 |
| CC(C)(C)c1ccc(NC(=O)[C@H](Cc2ccc(CN)cc2)NC(=O)Nc2ccc(OCc3ccccc3)cc2)cc1 [Compound 174, (S)-3-(4-AMINOMETHYL-PHENYL)-2-[3-(4-BENZYLOXY-PHENYL)-UREIDO]-N-(4-TERT-BUTYL-PHENYL)-PROPIONAMIDE] | < 10 |
| COC(=O)c1cccc(COc2ccc(NC(=O)NC(CCCCN)C(=O)Nc3ccc(C)cc3)cc2)c1 [Compound 276, (S)-3-{4-[3-(5-AMINO-1-P-TOLYLCARBAMOYL-PENTYL)-UREIDO]-PHENOXYMETHYL}-BENZOIC ACID METHYL ESTER] | 10 to 50 |
| Cc1ccc(NC(=O)[C@@H](N)CCCCN)cc1 [Compound 114, (S)-2,6-DIAMINO-HEXANOIC ACID P-TOLYLAMIDE] | > 50 |
| Cc1ccc(NC(=O)C(CCCCN)NC(=O)c2cccc3ccccc23)cc1 (stereo not drawn) [Compound 79, NAPHTHALENE-1-CARBOXYLIC ACID (5-AMINO-1-P-TOLYLCARBAMOYL-PENTYL)-AMIDE] | > 50 |
| Cc1ccc(NC(=O)[C@@H](CCCN)NC(=O)Nc2ccc(OCc3ccccc3)cc2)cc1 [Compound 192, (R)-5-AMINO-2-[3-(4-BENZYLOXY-PHENYL)-UREIDO]-PENTANOIC ACID P-TOLYLAMIDE] | > 50 |
| NCCCC[C@@H](NC(=O)OCC1c2ccccc2-c2ccccc21)C(=O)Nc1ccc(C2CCCCC2)cc1 [Compound 128, (R)-[5-AMINO-1-(4-CYCLOHEXYL-PHENYLCARBAMOYL)-PENTYL]-CARBAMIC ACID 9H-FLUOREN-9-YLMETHYL ESTER] | < 10 |
| Cc1ccc(NC(=O)C(CCCCN)NC(=O)Nc2ccc(N3CCCCC3)cc2)cc1 [Compound 269, (S)-6-AMINO-2-[3-(4-PIPERIDIN-1-YL-PHENYL)-UREIDO]-HEXANOIC ACID P-TOLYLAMIDE] | > 50 |
| O=C(CC1CNCCN1C(=O)NCc1ccc(Cl)cc1)Nc1ccc(C2CCCCC2)cc1 (stereo not drawn) [Compound 159, 2-[(4-CYCLOHEXYL-PHENYLCARBAMOYL)-METHYL]-PIPERAZINE-1-CARBOXYLIC ACID 4-CHLORO-BENZYLAMIDE] | 10 to 50 |
| Cc1ccc(NC(=O)C(CCCNC(N)=O)NC(=O)OCC2c3ccccc3-c3ccccc32)cc1 [Compound 113, (S)-(1-P-TOLYLCARBAMOYL-4-UREIDO-BUTYL)-CARBAMIC ACID 9H-FLUOREN-9-YLMETHYL ESTER] | > 50 |
| Cc1cc2cc(NC(=O)C(Cc3ccc(CN)cc3)NC(=O)Nc3ccc(-c4ccccc4)cc3)ccc2[nH]1 [Compound 234, (S)-3-(4-AMINOMETHYL-PHENYL)-2-(3-BIPHENYL-4-YL-UREIDO)—NR-(2-METHYL-1H-INDOL-5-YL)-PROPIONAMIDE] | 10 to 50 |
| NCCCCC(NC(=O)Cc1cccc2ccccc12)C(=O)Nc1ccc(CN(C(=O)c2ccco2)C2CCCCC2)cc1 (stereo in doubt) [Compound 25, (S)-FURAN-2-CARBOXYLIC ACID {4-[6-AMINO-2-(2-NAPHTHALEN-1-YL-ACETYLAMINO)-HEXANOYLAMINO]-BENZYL}-CYCLOHEXYL-AMIDE] | 10 to 50 |
| Cc1ccc(NC(=O)[C@H](CCCCN)NC(=O)CNc2ccc3c(c2)CCC3)cc1 [Compound 369, (S)-6-AMINO-2-[2-(INDAN-5-YLAMINO)-ACETYLAMINO]-HEXANOIC ACID P-TOLYLAMIDE] | > 50 |
| Cc1ccc(NC(=O)C2(NC(=O)OCC3c4ccccc4-c4ccccc43)CCNCC2)cc1 [Compound 138, (4-P-TOLYLCARBAMOYL-PIPERIDIN-4-YL)-CARBAMIC ACID 9H-FLUOREN-9-YLMETHYL ESTER] | > 50 |
| Cc1ccc(NC(=O)C(CCCCN)NC(=O)CNCc2ccccc2C)cc1 [Compound 338, (S)-6-AMINO-2-[2-(2-METHYL-BENZYLAMINO)-ACETYLAMINO]-HEXANOIC ACID P-TOLYLAMIDE] | > 50 |
| Cc1ccc(NC(=O)C(CCCC[N+](C)(C)C)NC(=O)OCC2c3ccccc3-c3ccccc32)cc1 (stereo not drawn) [Compound 110] | > 50 |
| NCCCC[C@H](NC(=O)Nc1ccc(OCc2ccccc2)cc1)C(=O)OCCN [Compound 259, (S)-6-AMINO-2-[3-(4-BENZYLOXY-PHENYL)-UREIDO]-HEXANOIC ACID (2-AMINO-ETHYL)-ESTER] | > 50 |

| Structure (SMILES) | IC50 [µM] |
| --- | --- |
| Cc1ccc(NC(=O)C(CCCCN)NC(=O)OCC2c3ccccc3-c3ccccc32)cn1 (stereo not drawn) [Compound 294, [5-AMINO-1-(6-METHYL-PYRIDIN-3-YLCARBAMOYL)-PENTYL]-CARBAMIC ACID 9H-FLUOREN-9-YLMETHYL ESTER] | > 50 |
| NCCC[C@@H](NC(=O)Nc1ccc2c(c1)Cc1ccccc1-2)C(=O)Nc1ccc(C2CCCCC2)cc1 [Compound 203, (R)-5-AMINO-2-[3-(9H-FLUOREN-2-YL)-UREIDO]-PENTANOIC ACID (4-CYCLOHEXYL-PHENYL)-AMIDE] | < 10 |
| Cc1ccc(NC(=O)CC2CN(C(=O)C(C)N)CCN2C(=O)OCC2c3ccccc3-c3ccccc32)cc1 (stereo not drawn) [Compound 185, 4-(R-2-AMINO-PROPIONYL)-2-(P-TOLYLCARBAMOYL-METHYL)-PIPERAZINE-1-CARBOXYLIC ACID 9H-FLUOREN-9-YLMETHYL ESTER] | > 50 |
| Cc1ccc(NC(=O)[C@@H](CCCCN)NC(=O)Nc2cccc(OCc3ccccc3)c2)cc1 [Compound 205, (R)-6-AMINO-2-[3-(3-BENZYLOXY-PHENYL)-UREIDO]-HEXANOIC ACID P-TOLYLAMIDE] | > 50 |
| Cc1ccc(NC(=O)C(CCCCN)NC(=O)Nc2ccc(C(=O)c3ccccc3)cc2)cc1 [Compound 75, (S)-6-AMINO-2-[3-(4-BENZOYL-PHENYL)-UREIDO]-HEXANOIC ACID P-TOLYLAMIDE] | > 50 |
| NCCCC[C@H](NC(=O)OCC1c2ccccc2-c2ccccc21)C(=O)Nc1ccncc1 [Compound 232, (S)-[5-AMINO-1-(PYRIDIN-4-YLCARBAMOYL)-PENTYL]-CARBAMIC ACID 9H-FLUOREN-9-YLMETHYL ESTER] | > 50 |
| Cc1cc2cc(NC(=O)C(CCCCN)NC(=O)OCC3c4ccccc4-c4ccccc43)ccc2[nH]1 [Compound 38, (S)-[5-AMINO-1-(2-METHYL-1H-INDOL-5-YLCARBAMOYL)-PENTYL]-CARBAMIC ACID 9H-FLUOREN-9-YL METHYL ESTER] | 10 to 50 |
| Cc1ccc(NC(=O)CC2CN(C(=O)CCN)CCN2C(=O)OCC2c3ccccc3-c3ccccc32)cc1 (stereo not drawn) [Compound 183, 4-(3-AMINO-PROPIONYL)-2-(P-TOLYLCARBAMOYL-METHYL)-PIPERAZINE-1-CARBOXYLIC ACID 9H-FLUOREN-9-YLMETHYL ESTER] | > 50 |
| CC(=O)Nc1ccc(NC(=O)[C@H](CCCCN)NC(=O)OCC2c3ccccc3-c3ccccc32)cc1 [Compound 230, (S)-[1-(4-ACETYLAMINO-PHENYLCARBAMOYL)-5-AMINO-PENTYL]-CARBAMIC ACID 9H-FLUOREN-9-YLMETHYL ESTER] | > 50 |
| Cc1ccc(NC(=O)C(CCCCN)NC(=O)CNCc2cccc(C)c2)cc1 [Compound 339, (S)-6-AMINO-2-[2-(3-METHYL-BENZYLAMINO)-ACETYLAMINO]-HEXANOIC ACID P-TOLYLAMIDE] | > 50 |
| Cc1ccc(NC(=O)C(CCCCN)NC(=O)COc2ccc(-c3ccccc3)cc2)cc1 [Compound 326, (S)-6-AMINO-2-[2-(BIPHENYL-4-YLOXY)-ACETYLAMINO]-HEXANOIC ACID P-TOLYLAMIDE] | > 50 |
| Cc1ccc(NC(=O)C(CCCCN)NC(=O)NC(C)c2cccc3ccccc23)cc1 [Compound 96, (R,S)-6-AMINO-2-[3-(1-NAPHTHALEN-1-YL-ETHYL)-UREIDO]-HEXANOIC ACID P-TOLYLAMIDE] | > 50 |
| Cc1ccc(NC(=O)C(Cc2cccs2)NC(=O)OCC2c3ccccc3-c3ccccc32)cc1 [Compound 381, (S)-(2-THIOPHEN-2-YL-1-P-TOLYLCARBAMOYL-ETHYL)-CARBAMIC ACID 9H-FLUOREN-9-YLMETHYL ESTER] | > 50 |
| Cc1ccc(NC(=O)[C@H](CCCCN)NC(=O)Nc2ccc(O)cc2)cc1 [Compound 194, (S)-6-AMINO-2-[3-(4-HYDROXY-PHENYL)-UREIDO]-HEXANOIC ACID P-TOLYLAMIDE] | > 50 |
| NCCCC[C@H](NC(=O)Nc1ccc(OCc2ccccc2)cc1)C(=O)Nc1cccc2c1CCC2 [Compound 321, (S)-6-AMINO-2-[3-(4-BENZYLOXY-PHENYL)-UREIDO]-HEXANOIC ACID INDAN-4-YLAMIDE] | < 10 |
| NCc1ccc(NC(=O)C(NC(=O)Nc2ccc(OCc3ccccc3)cc2)c2ccccc2)cc1 [Compound 305, (S)-NR-(4-AMINOMETHYL-PHENYL)-2-[3-(4-BENZYLOXY-PHENYL)-UREIDO]-2-PHENYL-ACETAMIDE] | < 10 |
| Cc1ccc(NC(=O)C(CCC(N)=O)NC(=O)OCC2c3ccccc3-c3ccccc32)cc1 [Compound 382, (R)-(3-CARBAMOYL-1-P-TOLYLCARBAMOYL-PROPYL)-CARBAMIC ACID 9H-FLUOREN-9-YLMETHYL ESTER] | > 50 |
| NCCCC[C@H](NC(=O)OCC1c2ccccc2-c2ccccc21)C(=O)NCCc1c[nH]c2ccccc12 [Compound 57, (S)-{5-AMINO-1-[2-(1H-INDOL-3-YL)-ETHYLCARBAMOYL]-PENTYL}-CARBAMIC ACID 9H-FLUOREN-9-YLMETHYL ESTER] | > 50 |
| Cc1ccc(NC(=O)C2(NC(=O)OCC3c4ccccc4-c4ccccc43)CCCNC2)cc1 (stereo not drawn) [Compound 109, (3-P-TOLYLCARBAMOYL-PIPERIDIN-3-YL)-CARBAMIC ACID 9H-FLUOREN-9-YLMETHYL ESTER] | > 50 |
